Measurements as given in article PMC10413460 (ACS Omega, 2023).

Biological target: epidermal growth factor receptor tyrosine kinase (EGFR-TK) (Homo sapiens, UniProt P00533)
Assay: ADP-Glo kinase assay, cell-free
Type: biochemical

epidermal growth factor receptor tyrosine kinase (EGFR-TK), sequence (P00533 669-1210 limits assumed): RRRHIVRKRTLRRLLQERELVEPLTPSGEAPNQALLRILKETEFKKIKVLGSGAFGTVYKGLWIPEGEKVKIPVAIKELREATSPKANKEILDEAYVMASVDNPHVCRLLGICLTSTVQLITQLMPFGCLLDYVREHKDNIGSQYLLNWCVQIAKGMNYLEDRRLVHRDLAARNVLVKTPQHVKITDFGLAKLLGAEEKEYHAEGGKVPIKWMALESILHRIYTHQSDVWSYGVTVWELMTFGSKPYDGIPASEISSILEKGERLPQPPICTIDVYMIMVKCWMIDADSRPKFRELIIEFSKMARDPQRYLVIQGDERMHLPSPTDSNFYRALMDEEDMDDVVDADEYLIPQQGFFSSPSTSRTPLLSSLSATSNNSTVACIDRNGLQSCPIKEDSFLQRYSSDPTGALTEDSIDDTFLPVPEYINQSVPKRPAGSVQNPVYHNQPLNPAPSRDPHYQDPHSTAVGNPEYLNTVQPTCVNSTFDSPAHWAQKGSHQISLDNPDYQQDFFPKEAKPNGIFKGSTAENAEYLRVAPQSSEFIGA

IC50: 333 nM
Compound: COC(=O)[C@@]12OC[C@]34[C@H]([C@@H](O)[C@@H]1O)[C@@]1(C)CC(=O)C(O)=C(C)[C@@H]1C[C@H]3OC(=O)[C@H](OC(=O)C=C(C)C)[C@@H]24 [brusatol]
